{"source": "ChEMBL document CHEMBL3769391", "about": "“Identification of a new cyathane diterpene that induces mitochondrial and autophagy-dependent apoptosis and shows a potent in vivo anti-colorectal cancer activity” (Eur J Med Chem, 2016)", "key": {"[1]": {"system": "HCT-116", "test": "Induction of apoptosis in human HCT116 cells assessed as increase in mitochondrial superoxide radical after 16 hrs by MitoSOX Red staining based flow cytometry", "assay_type": "functional, cell-based"}, "[2]": {"system": "HCT-116", "test": "Induction of apoptosis in ATG5 scramble human HCT116 cells assessed as late apoptotic cells at 5 uM after 24 hrs by Annexin V-FITC/propidium iodide staining based flow cytometry (reference value: 3.35%)", "assay_type": "functional"}, "[3]": {"system": "HCT-116", "test": "Induction of apoptosis in human HCT116 cells assessed as changes in Bax expression at 5 uM after 6 to 24 hrs by Western blot analysis", "assay_type": "functional, cell-based"}, "[4]": {"system": "HCT-116", "test": "Induction of apoptosis in human HCT116 cells assessed as early apoptotic cells at 10 uM after 24 hrs by Annexin V-FITC/propidium iodide staining based flow cytometry (reference value: 1.06%)", "assay_type": "functional"}, "[5]": {"system": "Mus musculus", "test": "Hepatotoxicity in immune deficient nude BALB/c mouse xenografted with human HCT116 cells assessed as changes in alanine transaminase level in serum at 5 and 10 mg/kg, ip administered every other day for 2 weeks measured during compound dosing", "assay_type": "toxicity, organism-based, HCT-116", "conditions": "in vivo, 336 h"}, "[6]": {"system": "HCT-116", "test": "Induction of apoptosis in human HCT116 cells assessed as late apoptotic cells at 10 uM after 12 hrs by Annexin V-FITC/propidium iodide staining based flow cytometry (reference value: 3.37%)", "assay_type": "functional"}, "[7]": {"system": "HCT-116", "test": "Induction of apoptosis in human HCT116 cells assessed as increase in ATG5 expression at 5 uM after 4 to 12 hrs by Western blot analysis", "assay_type": "functional, cell-based"}, "[8]": {"system": "Mus musculus", "test": "Toxicity in immune deficient nude BALB/c mouse xenografted with human HCT116 cells assessed as changes in body weight at 5 and 10 mg/kg, ip administered every other day for 2 weeks measured during compound dosing", "assay_type": "organism-based, HCT-116", "conditions": "in vivo, 336 h"}, "[9]": {"system": "HCT-116", "test": "Induction of apoptosis in Bax deficient human HCT116 cells assessed as early apoptotic cells at 20 uM after 24 hrs by Annexin V-FITC/propidium iodide staining based flow cytometry (reference value: 1.13%)", "assay_type": "functional"}, "[10]": {"system": "HCT-116", "test": "Induction of apoptosis in human HCT116 cells assessed as viable cells at 5 uM after 24 hrs by Annexin V-FITC/propidium iodide staining based flow cytometry in presence of DTT (reference value: 93.64%)", "assay_type": "functional", "conditions": "HCT-116, 24 h, read-out: Activity"}, "[11]": {"system": "HCT-116", "test": "Induction of apoptosis in human HCT116 cells assessed as ATG5 cleavage by Western blot analysis in presence of chloroquine", "assay_type": "functional, cell-based"}, "[12]": {"system": "HCT-116", "test": "Induction of apoptosis in ATG5 knockdown human HCT116 cells assessed as early apoptotic cells at 5 uM after 24 hrs by Annexin V-FITC/propidium iodide staining based flow cytometry (reference value: 1.13%)", "assay_type": "functional"}, "[13]": {"system": "HCT-116", "test": "Induction of apoptosis in human HCT116 cells assessed as caspase activation at 5 uM after 36 hrs by CaspACEFITC-VAD-FMK staining based flow cytometry (reference value: 7.72%)", "assay_type": "functional"}, "[14]": {"system": "HCT-116", "test": "Induction of apoptosis in human HCT116 cells assessed as necrotic cells at 5 uM after 24 hrs by Annexin V-FITC/propidium iodide staining based flow cytometry (reference value: 0.44%)", "assay_type": "functional"}, "[15]": {"system": "Mus musculus", "test": "Hepatotoxicity in immune deficient nude BALB/c mouse xenografted with Bax deficient human HCT116 cells assessed as changes in alanine transaminase level in serum at 5 and 10 mg/kg, ip administered every other day for 2 weeks measured during compound dosing", "assay_type": "toxicity, organism-based, HCT-116", "conditions": "in vivo, 336 h"}, "[16]": {"test": "Cytotoxicity against Bax deficient human HCT116 cells assessed as reduction in cell viability after 24 hrs by MTT assay", "assay_type": "functional, cell-based", "conditions": "HCT-116, 24 h"}, "[17]": {"system": "HCT-116", "test": "Induction of apoptosis in ATG5 knockdown human HCT116 cells assessed as late apoptotic cells at 5 uM after 24 hrs by Annexin V-FITC/propidium iodide staining based flow cytometry (reference value: 2.01%)", "assay_type": "functional"}, "[18]": {"test": "Antitumor activity against human HCT116 cells xenografted in immune deficient nude BALB/c mouse assessed as tumor growth inhibition at 10 mg/kg, ip administered every other day for 2 weeks measured after 2 weeks post last dose relative to control", "assay_type": "functional", "conditions": "HCT-116, ip, 336 h, read-out: TGI"}, "[19]": {"system": "HCT-116", "test": "Induction of apoptosis in human HCT116 cells assessed as increase in BimL expression at 5 uM after 6 to 24 hrs by Western blot analysis", "assay_type": "functional, cell-based"}, "[20]": {"system": "HCT-116", "test": "Induction of apoptosis in human HCT116 cells assessed as changes in Beclin-1 expression at 5 uM after 4 to 12 hrs by Western blot analysis", "assay_type": "functional, cell-based"}, "[21]": {"system": "Mus musculus", "test": "Hepatotoxicity in immune deficient nude BALB/c mouse xenografted with Bax deficient human HCT116 cells assessed as changes in total protein level at 5 and 10 mg/kg, ip administered every other day for 2 weeks measured during compound dosing", "assay_type": "toxicity, organism-based, HCT-116", "conditions": "in vivo, 336 h"}, "[22]": {"system": "HCT-116", "test": "Induction of apoptosis in human HCT116 cells assessed as viable cells at 5 uM after 24 hrs by Annexin V-FITC/propidium iodide staining based flow cytometry (reference value: 93.64%)", "assay_type": "functional", "conditions": "HCT-116, 24 h, read-out: Activity"}, "[23]": {"system": "HCT-116", "test": "Induction of apoptosis in Bax deficient human HCT116 cells assessed as late apoptotic cells at 15 uM after 24 hrs by Annexin V-FITC/propidium iodide staining based flow cytometry in presence of DTT (reference value: 1.56%)", "assay_type": "functional"}, "[24]": {"system": "HCT-116", "test": "Induction of apoptosis in human HCT116 cells assessed as necrotic cells at 5 uM after 24 hrs by Annexin V-FITC/propidium iodide staining based flow cytometry in presence of NAC (reference value: 0.44%)", "assay_type": "functional"}, "[25]": {"system": "HCT-116", "test": "Induction of apoptosis in human HCT116 cells assessed as early apoptotic cells at 5 uM after 24 hrs by Annexin V-FITC/propidium iodide staining based flow cytometry in presence of NAC (reference value: 2.2%)", "assay_type": "functional"}, "[26]": {"system": "HCT-116", "test": "Induction of apoptosis in human HCT116 cells assessed as late apoptotic cells at 2.5 uM after 24 hrs by Annexin V-FITC/propidium iodide staining based flow cytometry (reference value: 4.54%)", "assay_type": "functional"}, "[27]": {"system": "HCT-116", "test": "Induction of apoptosis in Bax deficient human HCT116 cells assessed as early apoptotic cells at 15 uM after 24 hrs by Annexin V-FITC/propidium iodide staining based flow cytometry in presence of NAC (reference value: 0.85%)", "assay_type": "functional"}, "[28]": {"system": "Mus musculus", "test": "Toxicity in immune deficient nude BALB/c mouse xenografted with Bax deficient human HCT116 cells assessed as changes in body weight at 5 and 10 mg/kg, ip administered every other day for 2 weeks measured during compound dosing", "assay_type": "organism-based, HCT-116", "conditions": "in vivo, 336 h"}, "[29]": {"system": "HCT-116", "test": "Induction of apoptosis in human HCT116 cells assessed as early apoptotic cells at 5 uM after 24 hrs by Annexin V-FITC/propidium iodide staining based flow cytometry (reference value: 1.06 to 2.2%)", "assay_type": "functional"}, "[30]": {"system": "Mus musculus", "test": "Toxicity in immune deficient nude BALB/c mouse xenografted with human HCT116 cells assessed as discomfort behavioral changes at 5 and 10 mg/kg, ip administered every other day for 2 weeks measured during compound dosing", "assay_type": "organism-based, HCT-116", "conditions": "in vivo, 336 h"}, "[31]": {"system": "HCT-116", "test": "Induction of apoptosis in human HCT116 cells assessed as increase in BimS expression at 5 uM after 6 to 24 hrs by Western blot analysis", "assay_type": "functional, cell-based"}, "[32]": {"system": "HCT-116", "test": "Induction of apoptosis in human HCT116 cells assessed as early apoptotic cells at 10 uM after 12 hrs by Annexin V-FITC/propidium iodide staining based flow cytometry (reference value: 1.13%)", "assay_type": "functional"}, "[33]": {"system": "HCT-116", "test": "Induction of apoptosis in human HCT116 cells assessed as increase in total cellular ROS level after 6 hrs by H2DCFDA staining based flow cytometry", "assay_type": "functional, cell-based"}}, "note": "Activity calls are given as the source filed them. The rule behind the calls is not given here."}
{"smiles": "CO[C@@H]1C(C=O)=CC[C@@H]2C3=C(C(C)C)CC[C@]3(C)CC[C@@]2(C)[C@H]1O", "values": [{"measurement": "Activity", "setting": "[1]", "result": "Dose-dependent effect"}, {"measurement": "Activity", "setting": "[2]", "result": 5.53, "unit": "%"}, {"measurement": "Activity", "setting": "[3]", "result": "inactive"}, {"measurement": "Activity", "setting": "[4]", "result": 59.5, "unit": "%"}, {"measurement": "Activity", "setting": "[5]", "result": "Non-toxic"}, {"measurement": "Activity", "setting": "[6]", "result": 22.01, "unit": "%"}, {"measurement": "Activity", "setting": "[7]", "result": "Active"}, {"measurement": "Activity", "setting": "[8]", "result": "Non-toxic"}, {"measurement": "Activity", "setting": "[9]", "result": 56.15, "unit": "%"}, {"measurement": "viability at 5 µM", "setting": "[10]", "result": 80.8, "unit": "%"}, {"measurement": "Activity", "setting": "[11]", "result": "inactive"}, {"measurement": "Activity", "setting": "[12]", "result": 2.36, "unit": "%"}, {"measurement": "Activity", "setting": "[13]", "result": 93.96, "unit": "%"}, {"measurement": "Activity", "setting": "[14]", "result": 5.93, "unit": "%"}, {"measurement": "Activity", "setting": "[15]", "result": "Non-toxic"}, {"measurement": "IC50", "setting": "[16]", "result": 24.2, "unit": "µM"}, {"measurement": "Activity", "setting": "[17]", "result": 1.85, "unit": "%"}, {"measurement": "inhibition in vivo at 10 mg/kg", "setting": "[18]", "result": 62.2, "unit": "%"}, {"measurement": "Activity", "setting": "[19]", "result": "Active"}, {"measurement": "Activity", "setting": "[20]", "result": "inactive"}, {"measurement": "Activity", "setting": "[21]", "result": "Non-toxic"}, {"measurement": "viability at 5 µM", "setting": "[22]", "result": 56.3, "unit": "%"}, {"measurement": "Activity", "setting": "[23]", "result": 3.36, "unit": "%"}, {"measurement": "Activity", "setting": "[24]", "result": 0.81, "unit": "%"}, {"measurement": "Activity", "setting": "[25]", "result": 1.35, "unit": "%"}, {"measurement": "Activity", "setting": "[26]", "result": 7.54, "unit": "%"}, {"measurement": "Activity", "setting": "[27]", "result": 1.42, "unit": "%"}, {"measurement": "Activity", "setting": "[28]", "result": "Non-toxic"}, {"measurement": "Activity", "setting": "[29]", "result": 24.72, "unit": "%"}, {"measurement": "Activity", "setting": "[30]", "result": "Non-toxic"}, {"measurement": "Activity", "setting": "[31]", "result": "Active"}, {"measurement": "Activity", "setting": "[32]", "result": 30.19, "unit": "%"}, {"measurement": "Activity", "setting": "[33]", "result": "Dose-dependent effect"}]}
